Data as given in patent US8461329B2, “Isoquinoline derivative” (Taisho Pharmaceutical Co., Ltd., priority 2008, dated 2013).

What follows are molecules tested against T1, CRTH2 (KB8 cells) (Homo sapiens, UniProt Q9Y5Y4) (assay: CRTH2 antagonist test (PGD2-induced intracellular calcium ion concentration increase in KB8 cells)). Conditions: PGD2 final concentration 100 nM, Fluo-4-AM fluorescence, read-out: antagonist activity (IC50 value, inhibition of calcium ion concentration increase).
T1 construct: host or cells: KB8 cells (human CRTH2 expression cell)
T1 sequence (Q9Y5Y4 1-395): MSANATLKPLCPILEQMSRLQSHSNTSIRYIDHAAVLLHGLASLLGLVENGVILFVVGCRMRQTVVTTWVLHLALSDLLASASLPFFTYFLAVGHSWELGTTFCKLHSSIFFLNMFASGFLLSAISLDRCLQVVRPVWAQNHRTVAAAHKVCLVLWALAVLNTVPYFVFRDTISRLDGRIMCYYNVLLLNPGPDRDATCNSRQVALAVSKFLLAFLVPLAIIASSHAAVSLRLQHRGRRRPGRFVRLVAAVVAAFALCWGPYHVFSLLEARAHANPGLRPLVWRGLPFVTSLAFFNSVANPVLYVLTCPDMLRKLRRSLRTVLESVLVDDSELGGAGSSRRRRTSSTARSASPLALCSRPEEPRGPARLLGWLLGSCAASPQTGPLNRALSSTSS
Format: cell-based
Experimental: The antagonist activity of the compound of the present invention was considered by using the intracellular calcium ion concentration increase reaction induced when the prostaglandin D2 was added to KB8 cells.
Fluo-4-AM (4-(6-acetoxymethoxy-2,7-difluoro-3-oxo-9-xanthenyl)-4′-methyl-2,2′-(ethylenedioxy)dianilide-N,N,N′,N′-tetraacetic acid tetrakis(acetoxymethyl) ester (SIGMA, final concentration: 1 μM) was added to KB8 cells, and the cells were incubated at 37° C. for 30 min, washed with phosphate buffer (Invitrogen), and then suspended in Hank's balanced salt solution (Invitrogen)) containing a reaction buffer solution (10 mM HEPES (Invitrogen), and 1 mM calcium chloride (SIGMA). The suspension was dispensed in a 96 well plate (Nunc) so that 2×10^5 cells/well were placed, and the compound of the present invention and PGD2 (final concentration: 100 nM) were added. The fluorescence intensity thereof was measured over time by using FDSS6000 (Hamamatsu Photonics), and thus the maximum fluorescence intensity value “d” was obtained. The same procedure was carried out in the absence of the compound, and the maximum fluorescence intensity value “e” was obtained; and the same procedure was carried out in the absence of the compound and […], and the maximum fluorescence intensity value “f” was obtained.
The calcium ion concentration increase inhibition rate of a compound was calculated by the following calculation formula: Inhibitory rate(%)=[1−(d−f)/(e−f)]×100
That is to say, by using calcium ion concentration increase inhibitory rates of compounds to be tested having various concentrations, the IC50 value was calculated according to a dose-dependent inhibition curve analyzed by using XLfit (IDBS) as a data analysis software, and the value was defined as an indicator of the antagonist activity. In Tables, A denotes an inhibitory activity showing the IC50 value of less than 50 nM; B denotes an inhibitory activity showing the IC50 value of 50 nM or greater and less than 500 nM; C denotes an inhibitory activity showing the IC50 value of 500 nM or greater and less than 1000 nM; and D denotes an inhibitory activity showing the IC50 value of 1000 nM or greater.

IC50	SMILES
< 50 nM	O=C(O)Cc1cnc(Cc2ccc(C(=O)NCCc3ccc(C4CCCCC4)cc3)cc2)c2ccccc12 [Example 237]
500 to 1000 nM	CC(C(=O)O)c1cnc(Cc2ccc(C(=O)NCCc3ccc(Cl)cc3)cc2)c2ccccc12 (centres unmarked) [Example 254, 2-[1-(4-{[2-(4-chlorophenyl)ethyl]carbamoyl}benzyl)isoquinolin-4-yl]propanoic acid]
< 50 nM	O=C(O)Cc1cnc(Cc2ccc(C(=O)NCCc3ccccc3Oc3ccccc3)cc2)c2ccccc12 [Example 243]
< 50 nM	COc1ccc2[nH]c(CCNC(=O)c3ccc(Cc4ncc(CC(=O)O)c5ccccc45)cc3)cc2c1 [Example 236]
< 50 nM	CCCOc1ccc(C(=O)Nc2ccc(C(=O)c3ncc(CC(=O)O)c4ccccc34)cc2)cc1 [Example 110]
< 50 nM	O=C(O)Cc1cnc(Cc2ccc(C(=O)NCCc3cc(C(F)(F)F)cc(C(F)(F)F)c3)cc2)c2ccccc12 [Example 222]
< 50 nM	O=C(O)Cc1cnc(Cc2ccc(C(=O)NCCc3ccc(Cl)cc3Cl)cc2)c2ccccc12 [Example 180]
≥ 1000 nM	O=C(O)Cc1cnc(Cc2ccc(C(=O)NCCc3ccc(C(=O)O)cc3)cc2)c2ccccc12 [Example 173]
< 50 nM	COc1ccc(CCNC(=O)c2ccc(Cc3ncc(CC(=O)O)c4ccccc34)cc2)cc1F [Example 232]
< 50 nM	O=C(O)Cc1cnc(Cc2ccc(C(=O)NCCc3cc(F)ccc3Cl)cc2)c2ccccc12 [Example 228]
50 to 500 nM	COc1cc(CCNC(=O)c2ccc(Cc3ncc(CC(=O)O)c4ccccc34)cc2)ccc1C [Example 211]
< 50 nM	O=C(O)Cc1cnc(Cc2ccc(C(=O)NCCc3c[nH]c4ccccc34)cc2)c2ccccc12 [Example 179]
50 to 500 nM	Cc1ccc(F)cc1CCNC(=O)c1ccc(Cc2ncc(CC(=O)O)c3ccccc23)cc1 [Example 213]
< 50 nM	Cc1ccc(CCNC(=O)c2ccc(Cc3ncc(CC(=O)O)c4ccccc34)cc2)c(C)c1 [Example 208]
< 50 nM	Cc1ccc(CCNC(=O)c2ccc(Cc3ncc(CC(=O)O)c4ccccc34)cc2)cc1 [Example 165]
50 to 500 nM	O=C(O)Cc1cnc(Cc2ccc(C(=O)NCc3ccc(Cl)cc3)cc2)c2ccccc12 [Example 154]
< 50 nM	Cc1cc(C(=O)Nc2ccc(C(=O)c3ncc(CC(=O)O)c4ccccc34)cc2)ccc1Cl [Example 107]

Further lines, the molecule ahead of its results:

SMILES	IC50
Cc1ccc(F)cc1C(=O)Nc1ccc(C(=O)c2ncc(CC(=O)O)c3ccccc23)cc1 [Example 62]	50 to 500 nM
COc1cc2c(CC(=O)O)cnc(C(=O)c3ccc(C(=O)NCCc4ccc(Cl)cc4)cc3)c2cc1OC [Example 259, {1-[(4-{[2-(4-chlorophenyl)ethyl]carbamoyl}phenyl)carbonyl]-6,7-dimethoxyisoquinolin-4-yl}acetic acid]	50 to 500 nM
O=C(O)Cc1cnc(C(=O)c2ccc(NC(=O)c3cnc4ccccc4n3)cc2)c2ccccc12 [Example 86]	50 to 500 nM
CCCCC(=O)Nc1ccc(C(=O)c2ncc(CC(=O)O)c3ccccc23)cc1 [Example 80]	50 to 500 nM
O=C(O)Cc1cnc(C(=O)c2ccc(NC(=O)c3c[nH]c4ccccc34)cc2)c2ccccc12 [Example 85]	< 50 nM
Cc1ccc(C)c(C(=O)Nc2ccc(C(=O)c3ncc(CC(=O)O)c4ccccc34)cc2)c1 [Example 44]	50 to 500 nM
O=C(O)Cc1cnc(C(=O)c2ccc(NC(=O)c3cccc(F)c3)cc2)c2ccccc12 [Example 71]	50 to 500 nM
O=C(O)Cc1cnc(C(=O)c2ccc(NC(=O)c3csc4ccccc34)cc2)c2ccccc12 [Example 88]	< 50 nM
O=C(O)Cc1cnc(C(=O)c2ccc(NC(=O)c3ccc4occc4c3)cc2)c2ccccc12 [Example 116]	< 50 nM
COc1cccc(C(=O)Nc2ccc(C(=O)c3ncc(CC(=O)O)c4ccccc34)cc2)c1 [Example 72]	< 50 nM
O=C(O)Cc1cnc(C(=O)c2ccc(NC(=O)c3cnccn3)cc2)c2ccccc12 [Example 69]	≥ 1000 nM
O=C(O)Cc1cnc(C(=O)c2ccc(NC(=O)c3ccc(C(=O)c4ccccc4)cc3)cc2)c2ccccc12 [Example 91]	< 50 nM
